Results as given in patent US4335108A, “Paulomycin A and B and preparation thereof” (The Upjohn Company, priority 1980, dated 1982).
≈ marks a conversion by molar mass, not a printed value.

Assays:
[1] = test system: Gram-positive bacteria; assay: Antibacterial activity against Gram-positive bacteria; format: cell-based
Protocol: (§1) The antibacterial assay is a standard microplate agar assay using PYG agar, pH 6. PYG agar consists of the following ingredients:
(§2) The MIC is determined by standard methods. The inocula are overnight cultures of the test organisms, diluted so that the final population contains approximately 10^5 cells/ml. The agar plates are incubated at 28° to 37° C. for 24 hours. The lowest antibiotic concentration which allows no growth=MIC or minimum inhibitory concentration.
as §2, with “Assay. The antibacterial assay is a standard microplate agar assay using PYG agar, pH 6. The MIC” for “The MIC”

[2] = test system: L-1210; assay: Antitumor (in vitro) activity; format: cell-based; conditions: L-1210, in vitro
[3] = test system: S. aureus UC 76; assay: Antibacterial microplate agar assay (MIC); format: cell-based, Staphylococcus aureus; conditions: PYG agar, pH 6, 24 hours, 28° to 37° C.
Protocol: as §1, §2
as §2, with “Assay. The antibacterial assay is a standard microplate agar assay using PYG agar, pH 6. The MIC” for “The MIC”

[4] = test system: S. aureus 6690; assay: Antibacterial microplate agar assay (MIC); format: cell-based, Staphylococcus aureus; conditions: PYG agar, pH 6, 24 hours, 28° to 37° C.
Protocol: as §1, §2
as §2, with “Assay. The antibacterial assay is a standard microplate agar assay using PYG agar, pH 6. The MIC” for “The MIC”

[5] = test system: S. aureus 6685; assay: Antibacterial microplate agar assay (MIC); format: cell-based, Staphylococcus aureus; conditions: PYG agar, pH 6, 24 hours, 28° to 37° C.
Protocol: as §1, §2
as §2, with “Assay. The antibacterial assay is a standard microplate agar assay using PYG agar, pH 6. The MIC” for “The MIC”

[6] = 60% aq. ethanol
[7] = test system: S. faecalis 694; assay: Antibacterial microplate agar assay (MIC); format: cell-based, Streptococcus faecalis; conditions: PYG agar, pH 6, 24 hours, 28° to 37° C.
Protocol: as §1, §2
as §2, with “Assay. The antibacterial assay is a standard microplate agar assay using PYG agar, pH 6. The MIC” for “The MIC”

[8] = test system: K. pneumoniae 58; assay: Antibacterial microplate agar assay (MIC); format: cell-based; conditions: PYG agar, pH 6, 24 hours, 28° to 37° C.
Protocol: as §1, §2
as §2, with “Assay. The antibacterial assay is a standard microplate agar assay using PYG agar, pH 6. The MIC” for “The MIC”

[9] = test system: S. schottmuelleri 126; assay: Antibacterial microplate agar assay (MIC); format: cell-based; conditions: PYG agar, pH 6, 24 hours, 28° to 37° C.
Protocol: as §1, §2
as §2, with “Assay. The antibacterial assay is a standard microplate agar assay using PYG agar, pH 6. The MIC” for “The MIC”

[10] = test system: S. marcescens 131; assay: Antibacterial microplate agar assay (MIC); format: cell-based; conditions: PYG agar, pH 6, 24 hours, 28° to 37° C.
Protocol: as §1, §2
as §2, with “Assay. The antibacterial assay is a standard microplate agar assay using PYG agar, pH 6. The MIC” for “The MIC”

[11] = test system: E. coli 45; assay: Antibacterial microplate agar assay (MIC); format: cell-based; conditions: PYG agar, pH 6, 24 hours, 28° to 37° C.
Protocol: as §1, §2
as §2, with “Assay. The antibacterial assay is a standard microplate agar assay using PYG agar, pH 6. The MIC” for “The MIC”

[12] = test system: Enterococcus sp. 701; assay: Antibacterial microplate agar assay (MIC); format: cell-based; conditions: PYG agar, pH 6, 24 hours, 28° to 37° C.
Protocol: as §1, §2
as §2, with “Assay. The antibacterial assay is a standard microplate agar assay using PYG agar, pH 6. The MIC” for “The MIC”

[13] = test system: S. flexneri 143; assay: Antibacterial microplate agar assay (MIC); format: cell-based; conditions: PYG agar, pH 6, 24 hours, 28° to 37° C.
Protocol: as §1, §2
as §2, with “Assay. The antibacterial assay is a standard microplate agar assay using PYG agar, pH 6. The MIC” for “The MIC”

[14] = test system: P. stuartii 6570; assay: Antibacterial microplate agar assay (MIC); format: cell-based; conditions: PYG agar, pH 6, 24 hours, 28° to 37° C.
Protocol: as §1, §2
as §2, with “Assay. The antibacterial assay is a standard microplate agar assay using PYG agar, pH 6. The MIC” for “The MIC”

[15] = test system: E. cloacae 6783; assay: Antibacterial microplate agar assay (MIC); format: cell-based; conditions: PYG agar, pH 6, 24 hours, 28° to 37° C.
Protocol: as §1, §2
as §2, with “Assay. The antibacterial assay is a standard microplate agar assay using PYG agar, pH 6. The MIC” for “The MIC”

[16] = test system: Ps. aeruginosa 95; assay: Antibacterial microplate agar assay (MIC); format: cell-based; conditions: PYG agar, pH 6, 24 hours, 28° to 37° C.
Protocol: as §1, §2
as §2, with “Assay. The antibacterial assay is a standard microplate agar assay using PYG agar, pH 6. The MIC” for “The MIC”

SMILES: C/C=C(\N=C=S)C(=O)O[C@H]1[C@@H](O[C@H]2C[C@H](OC)[C@@](O)([C@H](C)OC(=O)C(C)C)[C@H](C)O2)[C@@H](O)[C@H]([C@@]2(O)CC(=O)C(=N)C(C(=O)O)=C2O)O[C@@H]1COC(C)=O [Paulomycin B]
- adversely affecting the growth of Gram-positive bacteria ([1]; for example Bacillus subtilis, Staphylococcus aureus, Streptococcus pyogenes and Streptococcus faecalis): adversely affecting the growth of Gram-positive bacteria
- activity against various Gram-positive bacteria ([1]; in words): active against various Gram-positive bacteria
- ID50 [2]: 8.6 µg/mL (≈ 11.1 µM)
- ID90 [2]: 21 µg/mL (≈ 27.2 µM)
- Minimum Inhibitory Concentration [3]: 0.50 µg/mL
- Minimum Inhibitory Concentration [4]: 2.0 µg/mL
- Minimum Inhibitory Concentration [5]: 0.50 µg/mL
- pKa [6]: 7.4
- Minimum Inhibitory Concentration [7]: 125 µg/mL
- Minimum Inhibitory Concentration [8]: 250 µg/mL
- Minimum Inhibitory Concentration [9]: 500 µg/mL
- Minimum Inhibitory Concentration [10]: 250 µg/mL
- Minimum Inhibitory Concentration [11]: 250 µg/mL
- Minimum Inhibitory Concentration [12]: 31.2 µg/mL
- Minimum Inhibitory Concentration [13]: 250 µg/mL
- Minimum Inhibitory Concentration [14]: 250 µg/mL
- Minimum Inhibitory Concentration [15]: 500 µg/mL
- Minimum Inhibitory Concentration [16]: 250 µg/mL
